Test results published in the NIST ThermoML archive (doi:10.1021/je8003595).
Numbers after ± are expanded uncertainties.

Tests used:
[1] = 101 kPa, Liquid; for viscosity: Capillary tube (Ostwald / Ubbelohde) method
[2] = mn = molality of the nth substance listed, in mol/kg; settings: 101 kPa, Liquid, m2 = 0; for viscosity: Capillary tube (Ostwald / Ubbelohde) method

CC#N [acetonitrile]
mass density ([1]; 293.15 K): 782.499 ± 0.5 kg/m3
viscosity ([1]; 293.15 K): 0.3081 ± 0.0065 mPa·s
mass density ([1]; 298.15 K): 777.099 ± 0.51 kg/m3
viscosity ([1]; 298.15 K): 0.2857 ± 0.0065 mPa·s
mass density ([1]; 303.15 K): 771.674 ± 0.52 kg/m3
viscosity ([1]; 303.15 K): 0.2642 ± 0.0064 mPa·s
mass density ([1]; 308.15 K): 766.217 ± 0.53 kg/m3
viscosity ([1]; 308.15 K): 0.2444 ± 0.0064 mPa·s
mass density ([1]; 310.15 K): 763.991 ± 0.53 kg/m3
viscosity ([1]; 310.15 K): 0.2374 ± 0.0064 mPa·s
mass density ([1]; 313.15 K): 760.702 ± 0.53 kg/m3
viscosity ([1]; 313.15 K): 0.2267 ± 0.0063 mPa·s

CC#N [acetonitrile] + O=C(Oc1ccccc1)c1ccccc1O
viscosity ([2]; 293.15 K): 0.3081 ± 0.0065 mPa·s
mass density ([2]; 293.15 K): 782.499 ± 0.5 kg/m3
viscosity ([2]; 298.15 K): 0.2857 ± 0.0065 mPa·s
mass density ([2]; 298.15 K): 777.099 ± 0.51 kg/m3
viscosity ([2]; 303.15 K): 0.2642 ± 0.0064 mPa·s
mass density ([2]; 303.15 K): 771.674 ± 0.52 kg/m3
viscosity ([2]; 308.15 K): 0.2444 ± 0.0064 mPa·s
mass density ([2]; 308.15 K): 766.217 ± 0.53 kg/m3
viscosity ([2]; 310.15 K): 0.2374 ± 0.0064 mPa·s
mass density ([2]; 310.15 K): 763.991 ± 0.53 kg/m3
viscosity ([2]; 313.15 K): 0.2267 ± 0.0063 mPa·s
mass density ([2]; 313.15 K): 760.702 ± 0.53 kg/m3
